US7183277B2, “Carboxylic acid amides” (Merck Patent GmbH, priority 2002, dated 2007)
Where a name gives a salt, the structure may show the parent alone.

Key:
TF/FVIIa = TF/FVIIa (Homo sapiens, UniProt P08709); experiment: TF/FVIIa inhibition (TF/FVIIa-IC50); assay type: biochemical
From the text: The inhibition of factor VIIa by the compounds according to the invention and the measurement of the anticoagulant and antithrombotic activity can be determined by conventional in-vitro or in-vivo methods. A conventional method for the measurement of the inhibition of factor VIIa is described, for example, by H. F. Ronning et al. in Thrombosis Research 1996, 84, 73–81.

FXa = FXa (Homo sapiens, UniProt P00742); experiment: Factor Xa inhibition (FXa-IC50); assay type: biochemical
FXa, sequence (P00742 235-488 limits assumed): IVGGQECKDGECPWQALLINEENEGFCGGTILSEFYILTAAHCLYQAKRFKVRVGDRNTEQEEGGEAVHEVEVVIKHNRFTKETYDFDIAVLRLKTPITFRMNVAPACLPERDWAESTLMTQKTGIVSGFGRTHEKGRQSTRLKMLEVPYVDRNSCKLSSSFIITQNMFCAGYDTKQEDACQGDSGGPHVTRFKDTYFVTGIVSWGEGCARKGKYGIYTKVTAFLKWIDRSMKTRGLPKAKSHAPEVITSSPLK
FXa, sequence (P00742 41-179 partner limits assumed): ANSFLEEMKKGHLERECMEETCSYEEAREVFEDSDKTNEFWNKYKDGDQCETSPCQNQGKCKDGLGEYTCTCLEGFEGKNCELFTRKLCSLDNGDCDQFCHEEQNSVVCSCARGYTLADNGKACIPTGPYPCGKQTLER
From the text: The inhibition of factor Xa by the compounds according to the invention and the measurement of the anticoagulant and antithrombotic activity can be determined by conventional in-vitro or in-vivo methods. A suitable method is described, for example, by J. Hauptmann et al. in Thrombosis and Haemostasis 1990, 63, 220–223.
The inhibition of factor Xa can be measured, for example, by the method of T. Hara et al. in Thromb. Haemostas. 1994, 71, 314–319.

TF/FVIIa, sequence (P08709 213-466 limits assumed): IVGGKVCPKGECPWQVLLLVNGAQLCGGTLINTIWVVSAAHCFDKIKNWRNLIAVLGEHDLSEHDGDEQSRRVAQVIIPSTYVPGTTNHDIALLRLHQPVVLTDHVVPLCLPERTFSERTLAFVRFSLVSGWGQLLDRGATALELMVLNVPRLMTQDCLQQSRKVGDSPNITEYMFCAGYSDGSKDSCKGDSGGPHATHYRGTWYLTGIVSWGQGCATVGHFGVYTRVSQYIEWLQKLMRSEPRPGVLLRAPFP
TF/FVIIa, sequence (P08709 61-212 partner limits assumed): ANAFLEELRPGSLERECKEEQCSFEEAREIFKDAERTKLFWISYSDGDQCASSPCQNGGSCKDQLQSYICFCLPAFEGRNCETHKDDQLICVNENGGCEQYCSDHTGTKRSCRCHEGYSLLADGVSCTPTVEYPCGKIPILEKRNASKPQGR
TF/FVIIa, sequence (P13726 33-295 partner): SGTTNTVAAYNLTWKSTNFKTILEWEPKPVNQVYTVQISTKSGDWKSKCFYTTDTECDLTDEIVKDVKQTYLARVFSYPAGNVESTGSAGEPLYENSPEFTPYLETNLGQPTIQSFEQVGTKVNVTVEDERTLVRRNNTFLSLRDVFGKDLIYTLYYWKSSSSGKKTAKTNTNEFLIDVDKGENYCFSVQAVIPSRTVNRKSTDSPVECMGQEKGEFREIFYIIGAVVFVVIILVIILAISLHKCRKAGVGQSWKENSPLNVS

| SMILES | IC50 (TF/FVIIa) [µM] | IC50 (FXa) [µM] |
| --- | --- | --- |
| CON=C1CCCCN1c1ccc(NC(=O)[C@H](OC(=O)Nc2ccc(Cl)cc2)c2ccccc2)cc1 [AA, (R)-2-[N-(4-chlorophenyl)carbamoyloxy]-N-[4-(2-methoxyiminopiperidin-1-yl)phenyl]-2-phenylacetamide] | 0.29 | 0.22 |
| N=C1CCCCN1c1ccc(NC(=O)[C@H](OC(=O)Nc2ccc(Cl)cc2)c2ccccc2)cc1 [AB, (R)-2-[N-(4-chlorophenyl)carbamoyloxy]-N-[4-(2-iminopiperidin-1-yl)phenyl]-2-phenylacetamid, hydrochloride] | 0.099 | 0.058 |
| Cc1cc(NC(=O)[C@H](NC(=O)Nc2ccc(Cl)cc2)c2ccccc2)ccc1N1CCCC1=N [BA, (R)-2-[3-(4-chlorophenyl)ureido]-N-[4-(2-iminopyrrolidin-1-yl)-3-methylphenyl]-2-phenylacetamide, hydrochloride] | 0.49 | 0.68 |
| N#CN=C1NCCN1c1ccc(NC(=O)[C@@H](NC(=O)Nc2ccc(Cl)cc2)c2cccs2)cc1 [CA, (R)-2-[3-(4-chlorophenyl)ureido]-N-[4-(2-cyaniminoimidazolidin-1-yl)phenyl]-2-thiophen-2-ylacetamide] |  | 0.054 |
